Measurements reported in ChEMBL document CHEMBL1148957, “Asmarines I, J, and K and nosyberkol: four new compounds from the marine sponge Raspailia sp” (2004).

Columns and labels:
Format in all cases: functional
[1] = test system: PANC-1; test: Cytotoxicity against human PANC1 cells after 72 hrs by SRB assay; details: PANC-1, 72 h
[2] = test system: SK-OV-3; test: Cytotoxicity against human SKOV3 cells after 72 hrs by SRB assay; details: SK-OV-3, 72 h
[3] = Cytotoxicity against human IGROV cells after 72 hrs by SRB assay
[4] = test system: DU-145; test: Cytotoxicity against human DU145 cells after 72 hrs by SRB assay; details: DU-145, 72 h
[5] = Cytotoxicity against human IGROV-ET cells after 72 hrs by SRB assay
[6] = test system: HT-29; test: Cytotoxicity against human HT29 cells after 72 hrs by SRB assay; details: HT-29, 72 h
[7] = test system: K562; test: Cytotoxicity against human K562 cells after 72 hrs by SRB assay; details: K562, 72 h
[8] = test system: LoVo; test: Cytotoxicity against human doxorubicin-resistant LoVo cells after 72 hrs by SRB assay
[9] = test system: SK-MEL-28; test: Cytotoxicity against human SK-MEL-28 cells after 72 hrs by SRB assay; details: SK-MEL-28, 72 h
[10] = test system: LoVo; test: Cytotoxicity against human LoVo cells after 72 hrs by SRB assay
[11] = test system: LNCaP; test: Cytotoxicity against human LNCAP cells after 72 hrs by SRB assay
[12] = test system: A549; test: Cytotoxicity against human A549 cells after 72 hrs by SRB assay; details: A549, 72 h
[13] = test system: SK-BR-3; test: Cytotoxicity against human SK-BR-3 cells after 72 hrs by SRB assay; details: SK-BR-3, 72 h

Measured: GI50

C=C1CCC[C@@H]2[C@@](C)(CC[C@@]3(C)CCn4cnc5ncnc(c54)N3)[C@H](C)CC[C@@]12C [ASMARINE K]
5 µM: all assays above

C[C@H]1CC[C@@]23C[C@]2(C)CCC[C@@H]3[C@@]1(C)CC[C@@]1(C)CCn2cnc3ncnc(c32)N1O [ASMARINE I]
5 µM: all assays above

C[C@H]1CC[C@@]23C[C@]2(C)CCC[C@@H]3[C@@]1(C)CC[C@@]1(C)CCn2cnc3ncnc(c32)N1 [ASMARINE J]
5 µM: all assays above
